Measured values reported in ChEMBL document CHEMBL2203270, “POMA analyses as new efficient bioinformatics' platform to predict and optimise bioactivity of synthesized 3a,4-dihydro-3H-indeno[1,2-c]pyrazole-2-carboxamide/carbothioamide analogues” (Bioorg Med Chem Lett, 2012).
Values after ≈ are worked out from the molar mass of the structure shown. Active and inactive are the calls of the source. The calls are words filed in the database; no cut-off is given here.

Tests used:
Mus musculus [1] = assay: Neurotoxicity in mouse assessed as minimal motor impairment at 100 mg/kg, ip measured at 4 hr by rotarod test; assay type: toxicity, organism-based; set-up: dose 100 mg/kg, route intraperitoneal; settings: in vivo
Mus musculus [2] = assay: Neurotoxicity in mouse assessed as minimal motor impairment at 100 mg/kg, ip measured at 2 hr by rotarod test; assay type: toxicity, organism-based; set-up: dose 100 mg/kg, route intraperitoneal; settings: in vivo
Mus musculus [3] = assay: Neurotoxicity in mouse assessed as minimal motor impairment at 100 mg/kg, ip measured at 1 hr by rotarod test; assay type: toxicity, organism-based; set-up: dose 100 mg/kg, route intraperitoneal; settings: in vivo
Mus musculus [4] = assay: Neurotoxicity in mouse assessed as minimal motor impairment at 100 mg/kg, ip measured at 0.25 hr by rotarod test; assay type: toxicity, organism-based; set-up: dose 100 mg/kg, route intraperitoneal; settings: in vivo
Mus musculus [5] = assay: Neurotoxicity in mouse assessed as minimal motor impairment at 100 mg/kg, ip measured at 0.5 hr by rotarod test; assay type: toxicity, organism-based; set-up: dose 100 mg/kg, route intraperitoneal; settings: in vivo
Mus musculus [6] = assay: Anticonvulsant activity in mouse assessed as protection against clonic seizure at 100 mg/kg, ip measured at 4 hr; assay type: functional, organism-based; set-up: dose 100 mg/kg
Mus musculus [7] = assay: Anticonvulsant activity in mouse assessed as protection against clonic seizure at 100 mg/kg, ip measured at 2 hr; assay type: functional, organism-based; set-up: dose 100 mg/kg
Mus musculus [8] = assay: Anticonvulsant activity in mouse assessed as protection against clonic seizure at 100 mg/kg, ip measured at 1 hr; assay type: functional
Mus musculus [9] = assay: Anticonvulsant activity in mouse assessed as protection against clonic seizure at 100 mg/kg, ip measured at 0.5 hr; assay type: functional
Mus musculus [10] = assay: Anticonvulsant activity in mouse assessed as protection against clonic seizure at 100 mg/kg, ip measured at 0.25 hr; assay type: functional
[11] = test system: Human immunodeficiency virus 2; assay: Antiviral activity against HIV-2 ROD infected in MT4 cells assessed as protection against virus-induced cytopathicity relative to control; assay type: functional; settings: Human immunodeficiency virus 2, ISOLATE ROD
[12] = Cytotoxicity against mock-infected human MT4 cells assessed as decrease in cell viability by MTT assay; assay type: cell-based
[13] = test system: Human immunodeficiency virus 1; assay: Antiviral activity against HIV-1 3B infected in MT4 cells assessed as protection against virus-induced cytopathicity relative to control; assay type: functional; settings: Human immunodeficiency virus 1, 3B
[14] = test system: Human immunodeficiency virus 1; assay: Antiviral activity against HIV-1 3B infected in MT4 cells assessed as inhibition of virus-induced cytopathicity; assay type: functional, organism-based; settings: Human immunodeficiency virus 1, 3B
[15] = test system: Human immunodeficiency virus 2; assay: Antiviral activity against HIV-2 ROD infected in MT4 cells assessed as inhibition of virus-induced cytopathicity; assay type: functional, organism-based; settings: Human immunodeficiency virus 2, ISOLATE ROD
Aspergillus niger [16] = assay: Antimicrobial activity against Aspergillus niger NCIM 1196 by broth dilution technique; assay type: functional
Candida albicans [17] = assay: Antimicrobial activity against Candida albicans NCIM 3471 by broth dilution technique; assay type: functional
Pseudomonas aeruginosa [18] = assay: Antimicrobial activity against Pseudomonas aeruginosa ATCC 10145 by broth dilution technique; assay type: functional
Escherichia coli [19] = assay: Antimicrobial activity against Escherichia coli NCIM 5051 by broth dilution technique; assay type: functional
Bacillus subtilis [20] = assay: Antimicrobial activity against Bacillus subtilis NCIM 2439 by broth dilution technique; assay type: functional
Staphylococcus aureus [21] = assay: Antimicrobial activity against Staphylococcus aureus NCIM 2079 by broth dilution technique; assay type: functional
Candida albicans [22] = assay: Antimicrobial activity against Candida albicans NCIM 3471 by agar diffusion method; assay type: functional
Aspergillus niger [23] = assay: Antimicrobial activity against Aspergillus niger NCIM 1196 by agar diffusion method; assay type: functional
Bacillus subtilis [24] = assay: Antimicrobial activity against Bacillus subtilis NCIM 2439 by disc-diffusion method; assay type: functional
Pseudomonas aeruginosa [25] = assay: microbe, parasite or virus in culture; settings: ATCC 10145
Escherichia coli [26] = assay: microbe, parasite or virus in culture; settings: NCIM 5051
Description: Antimicrobial activity against Escherichia coli NCIM 5051 by disc-diffusion method

Staphylococcus aureus [27] = assay: microbe, parasite or virus in culture; settings: NCIM 2079
Description: Antimicrobial activity against Staphylococcus aureus NCIM 2079 by disc-diffusion method

COc1cc2c(cc1OC)C1=NN(C(=O)Nc3ccc(Cl)cc3)C(c3ccccc3Cl)C1C2 (configuration not stated)
Activity (Mus musculus [1]): Non-toxic | Activity (Mus musculus [2]): Non-toxic | Activity (Mus musculus [3]): Non-toxic | Activity (Mus musculus [4]): Non-toxic | Activity (Mus musculus [5]): Non-toxic | Activity (Mus musculus [6]): inactive | Activity (Mus musculus [7]): inactive | Activity (Mus musculus [8]; route intraperitoneal): 50% | Activity (Mus musculus [9]; route intraperitoneal): 75% | Activity (Mus musculus [10]): inactive | Emax [11]: 2% | CC50 [12]: 22.9 µM | Emax [13]: 2% | IC50 [14]: > 22.9 µM | IC50 [15]: > 22.9 µM

COc1cc2c(cc1OC)C1=NN(C(=O)Nc3ccc(Cl)cc3)C(c3ccc(F)cc3)C1C2 (configuration not stated)
Activity (Mus musculus [1]): Non-toxic | Activity (Mus musculus [2]): Non-toxic | Activity (Mus musculus [3]): Non-toxic | Activity (Mus musculus [4]): Non-toxic | Activity (Mus musculus [5]): Non-toxic | Activity (Mus musculus [6]): inactive | Activity (Mus musculus [7]): inactive | Activity (Mus musculus [8]; route intraperitoneal): 75% | Activity (Mus musculus [9]; route intraperitoneal): 100% | Activity (Mus musculus [10]; route intraperitoneal): 100% | Emax [11]: 2% | CC50 [12]: 25.8 µM | Emax [13]: 2% | IC50 [14]: > 25.8 µM | IC50 [15]: > 25.8 µM

COc1cc2c(cc1OC)C1=NN(C(N)=O)C(c3ccc(F)cc3)C1C2 (configuration not stated)
MFC (Aspergillus niger [16]): > 512 µg/mL | MIC (Aspergillus niger [16]): 128 µg/mL (≈ 360 µM) | MFC (Candida albicans [17]): > 512 µg/mL | MIC (Candida albicans [17]): 128 µg/mL (≈ 360 µM) | MBC (Pseudomonas aeruginosa [18]): 16 µg/mL (≈ 45 µM) | MIC (Pseudomonas aeruginosa [18]): 8 µg/mL (≈ 22.5 µM) | MBC (Escherichia coli [19]): 16 µg/mL (≈ 45 µM) | MIC (Escherichia coli [19]): 8 µg/mL (≈ 22.5 µM) | MBC (Bacillus subtilis [20]): 16 µg/mL (≈ 45 µM) | MIC (Bacillus subtilis [20]): 8 µg/mL (≈ 22.5 µM) | MBC (Staphylococcus aureus [21]): 16 µg/mL (≈ 45 µM) | MIC (Staphylococcus aureus [21]): 8 µg/mL (≈ 22.5 µM) | Emax [11]: 9% | CC50 [12]: 151 µM | Emax [13]: 3% | IC50 [14]: > 151 µM | IC50 [15]: > 151 µM

OC(Cn1cncn1)(Cn1cncn1)c1ccc(F)cc1F [FLUCONAZOLE]
MFC (Candida albicans [22]): 2 µg/mL (≈ 6.53 µM) | MIC (Candida albicans [22]): 1 µg/mL (≈ 3.27 µM) | MFC (Aspergillus niger [23]): 2 µg/mL (≈ 6.53 µM) | MIC (Aspergillus niger [23]): 2 µg/mL (≈ 6.53 µM)

COc1cc2c(cc1OC)C1=NN(C(=O)Nc3ccc(F)c(Cl)c3)C(c3ccccc3Cl)C1C2 (configuration not stated)
Activity (Mus musculus [1]): Non-toxic | Activity (Mus musculus [2]): Non-toxic | Activity (Mus musculus [3]): Toxic | Activity (Mus musculus [4]): Non-toxic | Activity (Mus musculus [5]): Non-toxic | Activity (Mus musculus [6]): inactive | Activity (Mus musculus [7]): inactive | Activity (Mus musculus [8]): inactive | Activity (Mus musculus [9]): inactive | Activity (Mus musculus [10]; route intraperitoneal): 75% | Emax [11]: 1% | CC50 [12]: 11.8 µM | Emax [13]: 5% | IC50 [14]: > 11.8 µM | IC50 [15]: > 11.8 µM

COc1cc2c(cc1OC)C1=NN(C(=O)Nc3ccc(F)c(Cl)c3)C(c3ccc(F)cc3)C1C2 (configuration not stated)
Activity (Mus musculus [1]): Non-toxic | Activity (Mus musculus [2]): Non-toxic | Activity (Mus musculus [3]): Non-toxic | Activity (Mus musculus [4]): Non-toxic | Activity (Mus musculus [5]): Non-toxic | Activity (Mus musculus [6]): inactive | Activity (Mus musculus [7]): inactive | Activity (Mus musculus [8]): inactive | Activity (Mus musculus [9]): inactive | Activity (Mus musculus [10]): inactive | Emax [11]: 7% | CC50 [12]: 179 µM | Emax [13]: 2% | IC50 [14]: > 179 µM | IC50 [15]: > 179 µM

COc1ccc(C2C3Cc4cc(OC)c(OC)cc4C3=NN2C(=O)Nc2ccc(F)c(Cl)c2)cc1OC (configuration not stated)
Activity (Mus musculus [1]): Non-toxic | Activity (Mus musculus [2]): Non-toxic | Activity (Mus musculus [3]): Non-toxic | Activity (Mus musculus [4]): Non-toxic | Activity (Mus musculus [5]): Non-toxic | Activity (Mus musculus [6]): inactive | Activity (Mus musculus [7]): inactive | Activity (Mus musculus [8]; route intraperitoneal): 50% | Activity (Mus musculus [9]; route intraperitoneal): 50% | Activity (Mus musculus [10]): inactive | Emax [11]: 38% | CC50 [12]: 223 µM | Emax [13]: 12% | IC50 [14]: > 223 µM | IC50 [15]: > 223 µM

COc1cc2c(cc1OC)C1=NN(C(=O)Nc3ccc(F)c(Cl)c3)C(c3ccccc3)C1C2 (configuration not stated)
Activity (Mus musculus [1]): Non-toxic | Activity (Mus musculus [2]): Non-toxic | Activity (Mus musculus [3]): Non-toxic | Activity (Mus musculus [4]): Non-toxic | Activity (Mus musculus [5]): Non-toxic | Activity (Mus musculus [6]): inactive | Activity (Mus musculus [7]): inactive | Activity (Mus musculus [8]): inactive | Activity (Mus musculus [9]): inactive | Activity (Mus musculus [10]; route intraperitoneal): 50% | Emax [11]: 10% | CC50 [12]: 35.8 µM | Emax [13]: 7% | IC50 [14]: > 35.8 µM | IC50 [15]: > 35.8 µM

COc1cc2c(cc1OC)C1=NN(C(N)=S)C(c3ccncc3)C1C2 (configuration not stated)
MFC (Aspergillus niger [16]): > 512 µg/mL | MIC (Aspergillus niger [16]): 128 µg/mL (≈ 361 µM) | MFC (Candida albicans [17]): > 512 µg/mL | MIC (Candida albicans [17]): 128 µg/mL (≈ 361 µM) | MBC (Pseudomonas aeruginosa [18]): > 512 µg/mL | MIC (Pseudomonas aeruginosa [18]): 32 µg/mL (≈ 90.3 µM) | MBC (Escherichia coli [19]): > 512 µg/mL | MIC (Escherichia coli [19]): 32 µg/mL (≈ 90.3 µM) | MBC (Bacillus subtilis [20]): > 512 µg/mL | MIC (Bacillus subtilis [20]): 32 µg/mL (≈ 90.3 µM) | MBC (Staphylococcus aureus [21]): > 512 µg/mL | MIC (Staphylococcus aureus [21]): 32 µg/mL (≈ 90.3 µM) | Emax [11]: 3% | CC50 [12]: 36.9 µM | Emax [13]: 2% | IC50 [14]: > 36.9 µM | IC50 [15]: > 36.9 µM

O=C(O)c1cn(C2CC2)c2cc(N3CCNCC3)c(F)cc2c1=O [CIPROFLOXACIN]
MBC (Bacillus subtilis [24]): 8 µg/mL (≈ 24.1 µM) | MIC (Bacillus subtilis [24]): 4 µg/mL (≈ 12.1 µM) | MBC (Pseudomonas aeruginosa [25]): 8 µg/mL (≈ 24.1 µM) | MIC (Pseudomonas aeruginosa [25]): 4 µg/mL (≈ 12.1 µM) | MBC (Escherichia coli [26]): 4 µg/mL (≈ 12.1 µM) | MBC (Staphylococcus aureus [27]): 8 µg/mL (≈ 24.1 µM) | MIC (Staphylococcus aureus [27]): 4 µg/mL (≈ 12.1 µM)

COc1ccc(C2C3Cc4cc(OC)c(OC)cc4C3=NN2C(N)=O)cc1OC (configuration not stated)
MFC (Aspergillus niger [16]): 512 µg/mL (≈ 1290 µM) | MIC (Aspergillus niger [16]): 32 µg/mL (≈ 80.5 µM) | MFC (Candida albicans [17]): 512 µg/mL (≈ 1290 µM) | MIC (Candida albicans [17]): 32 µg/mL (≈ 80.5 µM) | MBC (Pseudomonas aeruginosa [18]): > 512 µg/mL | MIC (Pseudomonas aeruginosa [18]): 128 µg/mL (≈ 322 µM) | MBC (Escherichia coli [19]): > 512 µg/mL | MIC (Escherichia coli [19]): 64 µg/mL (≈ 161 µM) | MBC (Bacillus subtilis [20]): > 512 µg/mL | MIC (Bacillus subtilis [20]): 128 µg/mL (≈ 322 µM) | MBC (Staphylococcus aureus [21]): > 512 µg/mL | MIC (Staphylococcus aureus [21]): 128 µg/mL (≈ 322 µM) | Emax [11]: 30% | CC50 [12]: 151 µM | Emax [13]: 6% | IC50 [14]: > 151 µM | IC50 [15]: > 151 µM
